Data from ChEMBL document CHEMBL3882729, “Receptor-type kinase modulators and methods of use” (2009).

Columns and labels:
Ephrin type-A receptor 2 = Ephrin type-A receptor 2 (Homo sapiens, UniProt P29317); assay: Inhibition of recombinant human N-terminal His6-tagged EphA2 (N598 to R890 residues) expressed in baculovirus using poly-EY as substrate after 180 mins by luciferase coupled chemiluminescence assay
Ephrin type-B receptor 4 = molecular target: T1, Ephrin type-B receptor 4 (Homo sapiens, UniProt P54760); assay: Inhibition of recombinant human N-terminal His6-tagged EphB4 kinase domain (E605 to E890 residues) expressed in baculovirus using poly-AEKY as substrate after 150 mins in presence of gamma33P-ATP by liquid scintillation spectrometry
T1 sequence (P54760 whole entry): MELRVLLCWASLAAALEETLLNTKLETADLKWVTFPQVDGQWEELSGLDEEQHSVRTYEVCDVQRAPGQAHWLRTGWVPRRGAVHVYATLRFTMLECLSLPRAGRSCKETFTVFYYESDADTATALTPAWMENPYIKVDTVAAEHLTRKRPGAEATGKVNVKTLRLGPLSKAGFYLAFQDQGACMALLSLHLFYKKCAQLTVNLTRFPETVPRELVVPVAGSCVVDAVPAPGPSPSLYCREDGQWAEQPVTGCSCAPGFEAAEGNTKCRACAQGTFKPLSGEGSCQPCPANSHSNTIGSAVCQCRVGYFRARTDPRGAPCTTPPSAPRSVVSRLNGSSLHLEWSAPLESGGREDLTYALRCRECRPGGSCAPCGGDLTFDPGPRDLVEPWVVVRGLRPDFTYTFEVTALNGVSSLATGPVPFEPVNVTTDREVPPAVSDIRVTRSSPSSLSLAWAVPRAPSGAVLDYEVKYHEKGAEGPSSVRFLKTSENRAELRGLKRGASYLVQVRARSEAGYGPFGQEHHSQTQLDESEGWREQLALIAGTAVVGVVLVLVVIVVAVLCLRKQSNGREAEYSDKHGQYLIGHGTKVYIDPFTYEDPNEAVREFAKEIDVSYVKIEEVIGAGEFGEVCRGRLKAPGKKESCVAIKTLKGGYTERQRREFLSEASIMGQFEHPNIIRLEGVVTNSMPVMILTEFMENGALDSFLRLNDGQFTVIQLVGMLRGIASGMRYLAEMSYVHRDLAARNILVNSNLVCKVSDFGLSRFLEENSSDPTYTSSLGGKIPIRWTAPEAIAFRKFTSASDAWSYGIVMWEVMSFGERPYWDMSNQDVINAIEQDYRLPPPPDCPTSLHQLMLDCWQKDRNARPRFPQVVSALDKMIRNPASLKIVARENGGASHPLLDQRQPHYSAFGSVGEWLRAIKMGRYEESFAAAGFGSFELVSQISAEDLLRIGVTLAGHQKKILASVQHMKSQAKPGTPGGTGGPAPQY

[1] = molecular target: Vascular endothelial growth factor receptor 2 (Homo sapiens, UniProt P35968); assay: Inhibition of recombinant human N-terminal GST-fused KDR (D807 to V1356 residues) expressed in baculovirus infected […] insect Sf9 cells using poly-EY as substrate after 240 mins by luciferase coupled chemiluminescence assay
Sequence of Vascular endothelial growth factor receptor 2 (P35968 whole entry, the tested form may be a part): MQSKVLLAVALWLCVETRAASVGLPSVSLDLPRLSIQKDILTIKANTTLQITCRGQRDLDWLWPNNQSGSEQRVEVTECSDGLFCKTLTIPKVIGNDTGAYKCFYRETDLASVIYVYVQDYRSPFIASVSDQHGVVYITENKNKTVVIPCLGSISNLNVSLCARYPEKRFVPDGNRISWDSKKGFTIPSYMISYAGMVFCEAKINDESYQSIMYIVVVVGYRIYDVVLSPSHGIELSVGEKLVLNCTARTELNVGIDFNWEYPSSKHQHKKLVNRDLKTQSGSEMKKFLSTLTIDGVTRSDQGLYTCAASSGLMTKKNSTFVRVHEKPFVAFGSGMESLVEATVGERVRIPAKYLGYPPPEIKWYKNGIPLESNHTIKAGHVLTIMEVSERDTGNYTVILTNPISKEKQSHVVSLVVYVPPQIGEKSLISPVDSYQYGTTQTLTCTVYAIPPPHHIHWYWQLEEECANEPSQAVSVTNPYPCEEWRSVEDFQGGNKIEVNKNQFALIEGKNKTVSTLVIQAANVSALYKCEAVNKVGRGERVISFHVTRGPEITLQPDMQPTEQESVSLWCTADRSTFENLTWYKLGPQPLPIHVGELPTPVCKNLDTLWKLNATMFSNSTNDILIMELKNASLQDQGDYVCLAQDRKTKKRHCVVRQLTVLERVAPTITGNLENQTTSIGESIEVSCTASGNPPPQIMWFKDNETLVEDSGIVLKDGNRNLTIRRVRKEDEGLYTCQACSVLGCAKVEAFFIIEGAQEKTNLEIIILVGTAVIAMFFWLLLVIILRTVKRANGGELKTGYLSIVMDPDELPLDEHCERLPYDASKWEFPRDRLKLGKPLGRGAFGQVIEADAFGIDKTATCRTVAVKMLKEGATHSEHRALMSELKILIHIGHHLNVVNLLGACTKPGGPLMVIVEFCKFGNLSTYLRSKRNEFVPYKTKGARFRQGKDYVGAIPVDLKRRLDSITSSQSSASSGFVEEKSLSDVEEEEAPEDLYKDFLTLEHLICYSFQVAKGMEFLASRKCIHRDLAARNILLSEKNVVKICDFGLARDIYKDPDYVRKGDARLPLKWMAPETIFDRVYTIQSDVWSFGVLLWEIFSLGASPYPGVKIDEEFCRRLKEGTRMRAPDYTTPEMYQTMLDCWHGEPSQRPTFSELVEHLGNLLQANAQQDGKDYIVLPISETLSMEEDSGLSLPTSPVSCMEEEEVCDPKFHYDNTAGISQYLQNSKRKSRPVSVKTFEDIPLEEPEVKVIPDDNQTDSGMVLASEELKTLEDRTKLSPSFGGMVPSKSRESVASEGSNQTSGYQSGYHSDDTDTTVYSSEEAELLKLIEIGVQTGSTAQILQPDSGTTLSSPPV

Sequence of Ephrin type-A receptor 2 (P29317 whole entry, the tested form may be a part): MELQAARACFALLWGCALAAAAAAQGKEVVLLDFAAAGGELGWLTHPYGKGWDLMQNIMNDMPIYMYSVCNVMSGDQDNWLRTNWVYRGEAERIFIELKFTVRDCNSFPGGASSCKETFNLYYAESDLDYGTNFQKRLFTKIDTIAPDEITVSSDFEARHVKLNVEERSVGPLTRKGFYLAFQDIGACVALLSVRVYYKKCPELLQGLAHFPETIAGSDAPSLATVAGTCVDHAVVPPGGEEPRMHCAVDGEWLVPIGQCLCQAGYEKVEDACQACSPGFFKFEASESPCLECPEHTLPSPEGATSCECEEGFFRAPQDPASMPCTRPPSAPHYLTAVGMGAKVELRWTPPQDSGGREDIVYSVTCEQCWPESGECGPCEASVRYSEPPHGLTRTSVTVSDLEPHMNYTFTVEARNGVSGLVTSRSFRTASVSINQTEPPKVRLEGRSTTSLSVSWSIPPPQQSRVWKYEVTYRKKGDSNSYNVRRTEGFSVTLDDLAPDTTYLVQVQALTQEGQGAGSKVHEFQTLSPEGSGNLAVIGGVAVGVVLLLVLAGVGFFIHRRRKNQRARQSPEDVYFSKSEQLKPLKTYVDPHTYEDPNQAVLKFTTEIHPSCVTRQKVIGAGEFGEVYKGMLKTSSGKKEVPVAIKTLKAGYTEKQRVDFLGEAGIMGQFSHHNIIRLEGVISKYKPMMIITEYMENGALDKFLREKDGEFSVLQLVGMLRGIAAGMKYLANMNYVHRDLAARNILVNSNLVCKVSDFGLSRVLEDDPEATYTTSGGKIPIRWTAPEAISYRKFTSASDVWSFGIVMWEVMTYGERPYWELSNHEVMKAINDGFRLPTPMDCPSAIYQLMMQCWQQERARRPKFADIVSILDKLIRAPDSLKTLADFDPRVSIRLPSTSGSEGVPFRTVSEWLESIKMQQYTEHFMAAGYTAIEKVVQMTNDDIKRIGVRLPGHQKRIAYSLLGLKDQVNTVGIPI

SMILES	IC50 (Ephrin type-A receptor 2)	IC50 (Ephrin type-B receptor 4)	IC50 [1]
COc1cc2c(Nc3ccc(Cl)cc3Cl)ncnc2cc1OCC1CN(C)CCO1 (configuration not stated)	0.05 to 1 µM	0.05 to 1 µM	0.05 to 1 µM
COc1cc2c(Nc3ccc(Cl)c(Cl)c3)ncnc2cc1OCc1cc(F)cc2c1OCOC2	1 to 20 µM	1 to 20 µM	1 to 20 µM
COC(=O)CCC(=O)N1CCOC(COc2cc3ncnc(Nc4ccc(Cl)c(Cl)c4)c3cc2OC)C1 (configuration not stated)	0.05 to 1 µM	0.05 to 1 µM	0.05 to 1 µM
COc1cc2c(Nc3ccc(Cl)c(Cl)c3)ncnc2cc1OCC1CN(S(=O)(=O)c2ccc(F)cc2)CCO1 (configuration not stated)	1 to 20 µM	0.05 to 1 µM	0.05 to 1 µM
COc1cc2c(Nc3ccc(N4CCN(C)CC4)c(F)c3)ncnc2cc1O[C@H]1CO[C@H]2[C@@H]1OC[C@@H]2F		1 to 20 µM	1 to 20 µM
COc1cc2c(Nc3ccc(Cl)c(Cl)c3)ncnc2cc1OCC1CN(C(=O)c2cccc3ccccc23)CCO1 (configuration not stated)	1 to 20 µM	0.05 to 1 µM	0.05 to 1 µM
COc1cc2c(Nc3ccc(Cl)c(Cl)c3)ncnc2cc1OCc1csc(CN(C)C)n1		0.05 to 1 µM	
COc1cccc(CC(=O)N2CCOC(COc3cc4ncnc(Nc5ccc(Cl)c(Cl)c5)c4cc3OC)C2)c1 (configuration not stated)	0.05 to 1 µM	0.05 to 1 µM	0.05 to 1 µM
COc1cc2c(Nc3cccc(Cl)c3F)ncnc2cc1OCC1CN(C)CCO1 (configuration not stated)	0.05 to 1 µM	0.05 to 1 µM	0.05 to 1 µM
COCCOc1cc2c(Nc3ccc(Cl)c(Cl)c3)ncnc2cc1OCC1CNCCO1 (configuration not stated)		< 0.05 µM	< 0.05 µM
COc1ccc(-c2nc(COc3cc4ncnc(Nc5ccc(Cl)c(Cl)c5)c4cc3OC)no2)cc1	1 to 20 µM		
COc1cc2c(Nc3ccc(Cl)c(Cl)c3)ncnc2cc1OCc1csc(CN2CCN(C)CC2)n1		< 0.05 µM	
COc1cc2c(Nc3ccc(Cl)c(Cl)c3)ncnc2cc1OCc1csc(CN2CCOCC2)n1		0.05 to 1 µM	
COc1cc2c(Nc3ccc(Cl)c(Cl)c3)ncnc2cc1OC[C@@H]1O[C@@H](OC)[C@@H](O)[C@H](O)[C@H]1O (single isomer, unassigned)	0.05 to 1 µM	< 0.05 µM	

Other lines, results leading:

IC50 (Ephrin type-A receptor 2)	IC50 (Ephrin type-B receptor 4)	IC50 [1]	SMILES
0.05 to 1 µM	0.05 to 1 µM	0.05 to 1 µM	CCCC(C)C(=O)N1CCOC(COc2cc3ncnc(Nc4ccc(Cl)c(Cl)c4)c3cc2OC)C1 (configuration not stated)
0.05 to 1 µM	0.05 to 1 µM	0.05 to 1 µM	CCC#CCN1CCOC(COc2cc3ncnc(Nc4ccc(Cl)c(Cl)c4)c3cc2OC)C1 (configuration not stated)
0.05 to 1 µM	< 0.05 µM	< 0.05 µM	COc1cc2c(Nc3ccc(Cl)c(Cl)c3)ncnc2cc1OCC1CN(C2CCN(C)CC2)CCO1 (configuration not stated)
0.05 to 1 µM	0.05 to 1 µM	0.05 to 1 µM	CC[C@@H](C)CN1CCOC(COc2cc3ncnc(Nc4ccc(Cl)c(Cl)c4)c3cc2OC)C1 (some centres not stated)
0.05 to 1 µM	0.05 to 1 µM	0.05 to 1 µM	CCCCCCN1CCOC(COc2cc3ncnc(Nc4ccc(Cl)c(Cl)c4)c3cc2OC)C1 (configuration not stated)
< 0.05 µM	< 0.05 µM	< 0.05 µM	COc1cc2c(Nc3ccc(Cl)c(Cl)c3)ncnc2cc1OCC1CN(CCCC#N)CCO1 (configuration not stated)
< 0.05 µM	< 0.05 µM	< 0.05 µM	COc1cc2c(Nc3ccc(Cl)c(Cl)c3)ncnc2cc1OCC1CN(CC2CC2)CCO1 (configuration not stated)
0.05 to 1 µM	< 0.05 µM	0.05 to 1 µM	COc1cc2c(Nc3ccc(Cl)c(Cl)c3)ncnc2cc1OCC1CN(CCC2OCCO2)CCO1 (configuration not stated)
0.05 to 1 µM	0.05 to 1 µM	0.05 to 1 µM	COc1cc2c(Nc3ccc(Cl)c(Cl)c3)ncnc2cc1OCC1CN(CCF)CCO1 (configuration not stated)
0.05 to 1 µM	0.05 to 1 µM	0.05 to 1 µM	COc1cc2c(Nc3ccc(Cl)c(Cl)c3)ncnc2cc1OCC1CN(C/C=C/Br)CCO1 (configuration not stated)
0.05 to 1 µM	0.05 to 1 µM	0.05 to 1 µM	COc1cc2c(Nc3ccc(Cl)c(C)c3)ncnc2cc1OCC1CN(C)CCO1 (configuration not stated)
	< 0.05 µM		COc1cc2c(Nc3ccc(Cl)c(Cl)c3)ncnc2cc1OCC1CCCCO1 (configuration not stated)
	< 0.05 µM	< 0.05 µM	COc1cc2c(Nc3ccc(Cl)c(Cl)c3)ncnc2cc1OCC1CN(CC2CCCCO2)CCO1 (configuration not stated)
